# Measurements reported in patent US12441690B2, “Benzamide derivative compound, method for preparing same, and pharmaceutical composition for treating or preventing inflammatory disease containing same as active ingredient” (SEOUL NATIONAL UNIVERSITY R&DB FOUNDATION, priority 2017, dated 2025).
# Target: PDE4B enzyme (Homo sapiens (Human), UniProt Q07343)
# Experiment: PDE4B inhibitory activity, LANCE Ultra cAMP assay
# Type: biochemical
# Conditions: 50% inhibition from cAMP to 5′AMP
# Protocol: In order to evaluate the PDE4B inhibitory activity of the compounds according to the present invention, the following experiment was performed using LANCE Ultra cAMP assay kit (Perkin Elmer, U.S.A).
# Particularly, 5 μl of the 3 nM cAMP dissolved reaction buffer was added to each reaction well (LANCE Ultra cAMP assay kit). Then, each example compound dilution solution (2.5 μl) and PDE4B enzyme (0.1 ng/well, BPS Biosciences, San Diego, U.S.A) were added to the well, followed by incubation for 1 hour at 37° C. Next, 5 μl of ULight-anti-cAMP detection reactant supplemented with 5 μl of Eu-cAMP tracer and 1 mM IBMX (LANCE Ultra cAMP assay kit) was added thereto, followed by incubation for 1 hour at 37° C.
# Sequence of PDE4B enzyme (Q07343 whole entry): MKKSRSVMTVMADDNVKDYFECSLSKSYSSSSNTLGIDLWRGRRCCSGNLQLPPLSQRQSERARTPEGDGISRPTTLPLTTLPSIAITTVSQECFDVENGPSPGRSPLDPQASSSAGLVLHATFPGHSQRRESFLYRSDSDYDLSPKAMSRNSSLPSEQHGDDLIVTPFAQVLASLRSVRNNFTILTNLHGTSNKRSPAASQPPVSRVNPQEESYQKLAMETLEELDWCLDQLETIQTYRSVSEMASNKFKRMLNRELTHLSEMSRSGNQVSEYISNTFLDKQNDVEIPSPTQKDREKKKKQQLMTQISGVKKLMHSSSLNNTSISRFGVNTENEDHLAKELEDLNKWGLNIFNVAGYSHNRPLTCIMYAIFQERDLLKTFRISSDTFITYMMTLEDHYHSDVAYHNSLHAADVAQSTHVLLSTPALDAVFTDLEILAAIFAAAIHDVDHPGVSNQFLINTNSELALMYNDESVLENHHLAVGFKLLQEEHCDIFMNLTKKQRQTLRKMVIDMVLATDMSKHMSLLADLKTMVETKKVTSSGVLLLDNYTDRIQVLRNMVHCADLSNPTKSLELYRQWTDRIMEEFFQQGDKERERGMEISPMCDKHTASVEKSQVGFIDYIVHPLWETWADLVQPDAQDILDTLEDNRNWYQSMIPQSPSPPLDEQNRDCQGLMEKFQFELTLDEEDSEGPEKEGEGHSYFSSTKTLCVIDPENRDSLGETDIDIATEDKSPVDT
row,IC50 [nM],Compound
1,178,"COc1ccc(-c2nc(SC)ncc2C(=O)Nc2c(Cl)cncc2Cl)cc1OC [Example 2, N-(3,5-dichloropyridine-4-yl)-4-(3,4-dimethoxyphenyl)-2-(methylthio)pyrimidine-5-carboxamide]"
2,95,"COc1ccc(-c2nc(SC)ncc2C(=O)Nc2ccncc2)cc1OC [Example 3, 4-(3,4-dimethoxyphenyl)-2-(methylthio)-N-(pyridine-4-yl)pyrimidine-5-carboxamide]"
3,166,"CSc1ncc(C(=O)NCCc2c[nH]c3ccccc23)c(N2CCOCC2)n1 [Example 4, N-(2-(1H-indole-3-yl)ethyl)-2-(methylthio)-4-morpholinopyrimidine-5-carboxamide]"
4,239,"COc1ccc(-c2nc(SC)ncc2C(=O)NC2CCOCC2)cc1OC [Example 5, 4-(3,4-dimethoxyphenyl)-2-(methylthio)-N-(tetrahydro-2H-pyran-4-yl)pyrimidine-5-carboxamide]"
5,367,"CSc1ncc(C(=O)Nc2ccc(F)cc2)c(N2CCOCC2)n1 [Example 6, N-(4-fluorophenyl)-2-(methylthio)-4-morpholinopyrimidine-5-carboxamide]"
6,< 10,"COc1ccc(CCNC(=O)c2cnc(SC)nc2N2CCOCC2)cc1OC [Example 7, N-(3,4-dimethoxyphenetyl)-2-(methylthio)-4-morpholinopyrimidine-5-carboxamide]"
7,74,"COc1ccc(CNC(=O)c2cnc(C(F)(F)F)nc2N2CCOCC2)c(OC)c1 [Example 8, N-(2,4-dimethoxybenzyl)-4-morpholino-2-(trifluoromethyl)pyrimidine-5-carboxamide]"
8,377,"COc1ccc(CNC(=O)c2cnc(SC)nc2N2CCOCC2)c(OC)c1 [Example 9, N-(2,4-dimethoxybenzyl)-2-(methylthio)-4-morpholinopyrimidine-5-carboxamide]"
9,73,"CSc1ncc(C(=O)Nc2c(Cl)cncc2Cl)c(N2CCOCC2)n1 [Example 10, N-(3,5-dichloropyridine-4-yl)-2-(methylthio)-4-morpholinopyrimidine-5-carboxamide]"
10,67,"COc1ccc(NC(=O)c2cnc(C(F)(F)F)nc2N2CCOCC2)cc1OC [Example 11, N-(3,4-dimethoxyphenyl)-4-morpholino-2-(trifluoromethyl)pyrimidine-5-carboxamide]"
11,266,"COc1ccc(-c2nc(C(F)(F)F)ncc2C(=O)NC2CCOCC2)cc1OC [Example 12, 4-(3,4-dimethoxyphenyl)-N-(tetrahydro-2H-pyran-4-yl)-2-(trifluoromethyl)pyrimidine-5-carboxamide]"
12,833,"CCN(CC)C(=O)c1cnc(C(F)(F)F)nc1-c1ccc(OC)c(OC)c1 [Example 13, 4-(3,4-dimethoxyphenyl)-N,N-diethyl-2-(trifluoromethyl)pyrimidine-5-carboxamide]"
13,506,"COc1ccc(-c2nc(S(C)(=O)=O)ncc2C(=O)NC2CCOCC2)cc1OC [Example 14, 4-(3,4-dimethoxyphenyl)-2-(methylsulfonyl)-N-(tetrahydro-2H-pyran-4-yl)pyrimidine-5-carboxamide]"
14,252,"COc1ccc(-c2nc(C(F)(F)F)ncc2C(=O)NC2CC2)cc1OC [Example 15, N-cyclopropyl-4-(3,4-dimethoxyphenyl)-2-(trifluoromethyl)pyrimidine-5-carboxamide]"
15,44,"COc1ccc(-c2nc(C(F)(F)F)ncc2C(=O)Nc2c(Cl)cncc2Cl)cc1OC [Example 16, N-(3,5-dichloropyridine-4-yl)-4-(3,4-dimethoxyphenyl)-2-(trifluoromethyl)pyrimidine-5-carboxamide]"
16,477,"COc1ccc(-c2nc(SC)ncc2C(=O)NC2CC2)cc1OC [Example 18, N-cyclopropyl-4-(3,4-dimethoxyphenyl)-2-(methylthio)pyrimidine-5-carboxamide]"
17,189,"COc1ccc(-c2nc(S(C)(=O)=O)ncc2C(=O)NC2CC2)cc1OC [Example 19, N-cyclopropyl-4-(3,4-dimethoxyphenyl)-2-(methylsulfonyl)pyrimidine-5-carboxamide]"
18,745,"COc1ccc(-c2nc(SC)ncc2C(=O)Nc2cc(C(C)C)c(N)c(C(C)C)c2)cc1OC [Example 20, N-(4-amino-3,5-diisopropylphenyl)-4-(3,4-dimethoxyphenyl)-2-(methylthio)pyrimidine-5-carboxamide]"
19,222,"COc1ccc(-c2nc(C(F)(F)F)ncc2C(=O)Nc2cc(C(C)C)c(N)c(C(C)C)c2)cc1OC [Example 21, N-(4-amino-3,5-diisopropylphenyl)-4-(3,4-dimethoxyphenyl)-2-(trifluoromethyl)pyrimidine-5-carboxamide]"
20,881,"COc1ccc(NC(=O)c2cnc(SC)nc2N2CCN(CCO)CC2)cc1OC [Example 22, N-(3,4-dimethoxyphenyl)-4-(4-(2-hydroxyethyl)piperazine-1-yl)-2-(methylthio)pyrimidine-5-carboxamide]"
21,469,"O=C(NCCc1c[nH]c2ccccc12)c1cnc(C(F)(F)F)nc1N1CCOCC1 [Example 24, N-(2-(1H-indole-3-yl)ethyl)-4-morpholino-2-(trifluoromethyl)pyrimidine-5-carboxamide]"
22,195,"COc1ccc(-c2nc(C(F)(F)F)ncc2C(=O)NCCN2CCOCC2)cc1OC [Example 26, 4-(3,4-dimethoxyphenyl)-N-(2-morpholinoethyl)-2-(trifluoromethyl)pyrimidine-5-carboxamide]"
23,860,"COc1ccc(-c2nc(SC)ncc2C(=O)NCCN2CCOCC2)cc1OC [Example 27, 4-(3,4-dimethoxyphenyl)-2-(methylthio)-N-(2-morpholinoethyl)pyrimidine-5-carboxamide]"
24,634,"COc1ccc(NC(=O)c2cnc(SC)nc2-c2ccc(OC)c(OC)c2)cc1OC [Example 29, N,4-bis(3,4-dimethoxyphenyl)-2-(methylthio)pyrimidine-5-carboxamide]"
25,61,"COc1ccc(NC(=O)c2cnc(C(F)(F)F)nc2-c2ccc(OC)c(OC)c2)cc1OC [Example 30, N,4-bis(3,4-dimethoxyphenyl)-2-(trifluoromethyl)pyrimidine-5-carboxamide]"
